Assay results taken from ChEMBL document CHEMBL1201862, “PubChem BioAssay data set” (2004).
The source made the active and inactive calls.

Tests used:
cells [1] = format: functional, cell-based
cells [2] = format: functional, cell-based; remark: listed apart in the source
Leucine aminopeptidase = biological target: T1, Leucine aminopeptidase (Plasmodium falciparum 3D7, UniProt Q8IL11); test: P. falciparum M17LAP inhibitors, primary screen, biochemical, fluorogenic H-Leu-NHMec substrate, 1536-well (AID 1619); format: functional
T1 sequence (Q8IL11 whole entry): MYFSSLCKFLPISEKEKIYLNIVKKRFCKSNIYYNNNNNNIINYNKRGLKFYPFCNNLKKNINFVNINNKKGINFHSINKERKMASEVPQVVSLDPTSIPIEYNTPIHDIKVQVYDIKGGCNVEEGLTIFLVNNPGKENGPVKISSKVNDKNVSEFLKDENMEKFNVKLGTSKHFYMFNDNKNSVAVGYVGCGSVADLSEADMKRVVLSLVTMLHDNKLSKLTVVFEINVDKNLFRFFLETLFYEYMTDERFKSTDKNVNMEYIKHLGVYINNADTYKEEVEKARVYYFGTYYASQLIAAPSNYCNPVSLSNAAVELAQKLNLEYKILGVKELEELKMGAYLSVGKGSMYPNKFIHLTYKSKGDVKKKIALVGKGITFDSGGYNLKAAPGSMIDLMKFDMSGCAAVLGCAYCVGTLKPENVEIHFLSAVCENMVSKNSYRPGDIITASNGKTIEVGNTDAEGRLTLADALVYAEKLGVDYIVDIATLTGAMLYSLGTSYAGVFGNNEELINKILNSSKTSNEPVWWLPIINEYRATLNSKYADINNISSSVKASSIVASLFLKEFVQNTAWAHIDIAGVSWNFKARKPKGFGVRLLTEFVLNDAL

Cytochrome P450 2C9 = Cytochrome P450 2C9 (Homo sapiens, UniProt P11712)
Sequence of Cytochrome P450 2C9 (P11712 whole entry): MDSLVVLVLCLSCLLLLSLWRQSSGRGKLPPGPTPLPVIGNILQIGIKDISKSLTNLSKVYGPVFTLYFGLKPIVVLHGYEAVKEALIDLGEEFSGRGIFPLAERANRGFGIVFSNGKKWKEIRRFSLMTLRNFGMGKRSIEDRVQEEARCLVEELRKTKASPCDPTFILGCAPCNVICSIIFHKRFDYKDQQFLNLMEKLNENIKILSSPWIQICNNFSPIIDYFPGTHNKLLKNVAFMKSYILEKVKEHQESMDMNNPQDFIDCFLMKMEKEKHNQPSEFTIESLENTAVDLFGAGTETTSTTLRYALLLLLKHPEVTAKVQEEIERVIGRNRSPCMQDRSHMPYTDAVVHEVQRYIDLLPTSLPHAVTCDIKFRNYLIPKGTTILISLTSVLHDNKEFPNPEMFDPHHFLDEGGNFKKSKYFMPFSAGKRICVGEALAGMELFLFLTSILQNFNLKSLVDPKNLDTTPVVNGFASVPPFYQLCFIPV

Cytochrome P450 2C19 = Cytochrome P450 2C19 (Homo sapiens, UniProt P33261); test: Cytochrome panel assay with activity outcomes. Panel member name: p450-cyp2c19 Compounds with AC50 equal or less than 10 uM are considered active; format: functional; conditions: read-out: AC50
Sequence of Cytochrome P450 2C19 (P33261 whole entry): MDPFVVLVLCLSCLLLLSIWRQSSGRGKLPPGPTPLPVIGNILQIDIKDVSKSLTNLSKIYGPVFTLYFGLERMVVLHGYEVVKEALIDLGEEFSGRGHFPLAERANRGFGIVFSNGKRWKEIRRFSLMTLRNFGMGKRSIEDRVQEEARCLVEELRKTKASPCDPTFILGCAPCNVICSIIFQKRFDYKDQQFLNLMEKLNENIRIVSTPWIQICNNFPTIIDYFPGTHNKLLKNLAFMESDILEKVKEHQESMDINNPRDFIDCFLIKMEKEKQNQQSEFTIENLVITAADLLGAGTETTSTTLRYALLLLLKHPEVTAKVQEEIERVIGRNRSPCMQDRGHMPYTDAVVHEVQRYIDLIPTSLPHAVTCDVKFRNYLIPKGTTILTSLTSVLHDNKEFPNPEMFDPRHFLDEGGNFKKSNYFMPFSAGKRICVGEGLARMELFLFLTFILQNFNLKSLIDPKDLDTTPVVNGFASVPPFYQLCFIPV

Cytochrome P450 1A2 = biological target: T2, Cytochrome P450 1A2 (Homo sapiens, UniProt P05177);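 further: PubChem cytochrome P450 panel assay, CYP1A2 panel member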
T2 sequence (P05177 whole entry): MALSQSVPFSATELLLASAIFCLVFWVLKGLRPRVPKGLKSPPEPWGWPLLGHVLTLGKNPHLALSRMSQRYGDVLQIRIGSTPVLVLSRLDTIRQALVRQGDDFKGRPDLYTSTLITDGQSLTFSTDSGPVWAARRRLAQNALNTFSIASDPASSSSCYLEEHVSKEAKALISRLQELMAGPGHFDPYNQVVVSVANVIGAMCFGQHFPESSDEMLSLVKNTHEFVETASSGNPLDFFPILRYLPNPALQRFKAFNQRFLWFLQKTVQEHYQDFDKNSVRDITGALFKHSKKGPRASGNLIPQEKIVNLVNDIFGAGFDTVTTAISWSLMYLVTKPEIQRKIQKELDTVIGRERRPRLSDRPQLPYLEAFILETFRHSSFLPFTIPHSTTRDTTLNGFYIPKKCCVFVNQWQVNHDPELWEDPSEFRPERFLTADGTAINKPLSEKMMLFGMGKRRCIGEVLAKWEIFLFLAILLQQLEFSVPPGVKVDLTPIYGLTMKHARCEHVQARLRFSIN

[3] = viability of uninfected HEp-2 cells – cell-based, HTS, cytotoxicity control for RSV inhibitor project, dose response (AID 2410); format: functional; conditions: human respiratory syncytial virus
Fatty acid synthase = Fatty acid synthase (Homo sapiens, UniProt P49327); test: inhibition of human FAS-TE enzyme activity – biochemical, kinetic fluorescence intensity, dose response (AID 624326); format: functional;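 further: rate of fluorescence rise from hydrolysis of a fluorogenic O-methyl fluorescein ester substrate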
Sequence of Fatty acid synthase (P49327 whole entry): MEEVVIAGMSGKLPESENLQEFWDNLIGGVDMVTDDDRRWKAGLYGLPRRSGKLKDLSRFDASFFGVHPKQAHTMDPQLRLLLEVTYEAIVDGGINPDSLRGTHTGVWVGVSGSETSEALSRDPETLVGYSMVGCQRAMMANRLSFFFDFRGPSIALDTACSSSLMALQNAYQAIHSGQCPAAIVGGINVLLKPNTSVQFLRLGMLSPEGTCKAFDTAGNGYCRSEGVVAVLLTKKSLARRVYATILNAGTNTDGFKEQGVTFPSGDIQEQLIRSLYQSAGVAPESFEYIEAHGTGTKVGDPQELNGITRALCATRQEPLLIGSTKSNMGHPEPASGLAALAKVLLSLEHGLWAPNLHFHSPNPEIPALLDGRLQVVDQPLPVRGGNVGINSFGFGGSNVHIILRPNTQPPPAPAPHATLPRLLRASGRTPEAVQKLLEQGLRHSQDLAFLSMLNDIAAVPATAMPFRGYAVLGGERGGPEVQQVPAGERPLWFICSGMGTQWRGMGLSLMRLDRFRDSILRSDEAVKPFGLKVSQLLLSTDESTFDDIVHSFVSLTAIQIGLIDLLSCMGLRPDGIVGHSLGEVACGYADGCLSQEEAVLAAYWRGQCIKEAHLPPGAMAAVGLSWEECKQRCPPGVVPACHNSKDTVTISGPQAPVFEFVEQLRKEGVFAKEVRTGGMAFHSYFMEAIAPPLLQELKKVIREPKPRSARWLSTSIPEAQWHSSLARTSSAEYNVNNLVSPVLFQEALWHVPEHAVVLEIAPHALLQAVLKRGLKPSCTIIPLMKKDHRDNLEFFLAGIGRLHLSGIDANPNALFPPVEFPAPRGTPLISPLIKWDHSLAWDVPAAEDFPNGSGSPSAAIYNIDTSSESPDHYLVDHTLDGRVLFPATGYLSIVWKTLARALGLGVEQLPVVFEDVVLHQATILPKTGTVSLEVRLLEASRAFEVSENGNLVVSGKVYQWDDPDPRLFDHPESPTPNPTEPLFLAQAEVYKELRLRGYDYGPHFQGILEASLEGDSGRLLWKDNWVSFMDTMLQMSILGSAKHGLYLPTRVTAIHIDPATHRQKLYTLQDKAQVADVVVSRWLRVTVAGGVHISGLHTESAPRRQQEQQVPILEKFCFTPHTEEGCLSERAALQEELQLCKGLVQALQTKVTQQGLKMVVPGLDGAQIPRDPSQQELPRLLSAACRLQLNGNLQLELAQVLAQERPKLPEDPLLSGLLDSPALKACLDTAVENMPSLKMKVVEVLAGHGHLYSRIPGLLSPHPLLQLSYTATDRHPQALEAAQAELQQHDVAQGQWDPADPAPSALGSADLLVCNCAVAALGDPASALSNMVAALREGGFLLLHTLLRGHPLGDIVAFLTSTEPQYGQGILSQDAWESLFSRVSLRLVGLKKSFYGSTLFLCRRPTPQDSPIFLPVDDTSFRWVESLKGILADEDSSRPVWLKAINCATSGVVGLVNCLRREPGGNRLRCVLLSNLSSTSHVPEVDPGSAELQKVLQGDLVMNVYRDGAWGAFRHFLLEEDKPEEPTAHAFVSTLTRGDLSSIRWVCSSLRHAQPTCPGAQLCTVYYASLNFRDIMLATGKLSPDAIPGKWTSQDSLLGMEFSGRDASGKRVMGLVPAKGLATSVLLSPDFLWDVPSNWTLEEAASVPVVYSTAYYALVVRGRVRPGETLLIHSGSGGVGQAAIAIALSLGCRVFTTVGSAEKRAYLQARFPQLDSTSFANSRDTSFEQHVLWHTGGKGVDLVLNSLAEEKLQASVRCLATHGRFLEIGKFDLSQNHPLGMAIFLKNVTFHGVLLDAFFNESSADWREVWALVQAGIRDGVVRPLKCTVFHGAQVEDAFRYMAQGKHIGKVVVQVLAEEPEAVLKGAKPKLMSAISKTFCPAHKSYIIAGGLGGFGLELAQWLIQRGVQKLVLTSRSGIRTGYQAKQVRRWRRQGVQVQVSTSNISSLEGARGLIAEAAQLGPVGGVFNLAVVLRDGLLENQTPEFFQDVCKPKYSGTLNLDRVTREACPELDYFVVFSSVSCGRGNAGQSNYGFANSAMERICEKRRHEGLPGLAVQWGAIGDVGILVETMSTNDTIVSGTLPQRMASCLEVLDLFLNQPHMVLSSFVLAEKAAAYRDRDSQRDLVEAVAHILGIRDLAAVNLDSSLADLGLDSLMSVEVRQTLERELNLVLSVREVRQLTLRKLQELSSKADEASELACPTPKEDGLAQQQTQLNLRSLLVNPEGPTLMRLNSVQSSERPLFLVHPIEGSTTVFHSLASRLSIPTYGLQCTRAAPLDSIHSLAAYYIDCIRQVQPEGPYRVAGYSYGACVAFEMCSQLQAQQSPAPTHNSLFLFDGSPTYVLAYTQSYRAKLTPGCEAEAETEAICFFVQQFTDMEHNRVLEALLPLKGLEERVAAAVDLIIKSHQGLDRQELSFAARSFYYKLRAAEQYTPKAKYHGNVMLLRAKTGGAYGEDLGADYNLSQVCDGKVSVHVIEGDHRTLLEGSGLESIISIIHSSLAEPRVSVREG

Streptococcus = test: GAS UMAA2166 growth inhibition – luminescence, BacTiterGlo, counter-screen for streptokinase expression inhibitor project, dose response (AID 1915); format: functional, organism-based;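 further: potency for reduction of bacterial viability or growth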
Streptokinase A = biological target: T3, Streptokinase A (Streptococcus pyogenes serotype M1, UniProt P10520); test: viability-normalized secreted streptokinase activity reduction – plasminogen activation absorbance, OD405, dose response (AID 1914); format: functional, Streptococcus pyogenes M1 GAS;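 further: secreted streptokinase activity via plasminogen activation per viability signal from cell pellet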
T3 sequence (P10520 whole entry): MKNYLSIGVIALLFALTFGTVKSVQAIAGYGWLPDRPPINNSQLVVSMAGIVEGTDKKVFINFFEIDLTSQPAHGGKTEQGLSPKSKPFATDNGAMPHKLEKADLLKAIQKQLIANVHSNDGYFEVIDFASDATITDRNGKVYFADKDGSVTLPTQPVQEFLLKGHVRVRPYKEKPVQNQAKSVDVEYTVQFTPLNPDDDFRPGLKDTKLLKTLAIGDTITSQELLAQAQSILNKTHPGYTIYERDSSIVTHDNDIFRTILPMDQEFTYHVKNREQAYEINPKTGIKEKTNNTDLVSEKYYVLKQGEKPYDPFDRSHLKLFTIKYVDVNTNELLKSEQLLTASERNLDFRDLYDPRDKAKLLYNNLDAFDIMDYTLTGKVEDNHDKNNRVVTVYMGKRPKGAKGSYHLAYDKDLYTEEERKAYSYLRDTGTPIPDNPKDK

[4] = biological target: Luciferin 4-monooxygenase (Photinus pyralis, UniProt P08659); test: inhibition of purified Photinus pyralis luciferase – biochemical, luminescence, dose response (AID 1891)
Sequence of Luciferin 4-monooxygenase (P08659 whole entry): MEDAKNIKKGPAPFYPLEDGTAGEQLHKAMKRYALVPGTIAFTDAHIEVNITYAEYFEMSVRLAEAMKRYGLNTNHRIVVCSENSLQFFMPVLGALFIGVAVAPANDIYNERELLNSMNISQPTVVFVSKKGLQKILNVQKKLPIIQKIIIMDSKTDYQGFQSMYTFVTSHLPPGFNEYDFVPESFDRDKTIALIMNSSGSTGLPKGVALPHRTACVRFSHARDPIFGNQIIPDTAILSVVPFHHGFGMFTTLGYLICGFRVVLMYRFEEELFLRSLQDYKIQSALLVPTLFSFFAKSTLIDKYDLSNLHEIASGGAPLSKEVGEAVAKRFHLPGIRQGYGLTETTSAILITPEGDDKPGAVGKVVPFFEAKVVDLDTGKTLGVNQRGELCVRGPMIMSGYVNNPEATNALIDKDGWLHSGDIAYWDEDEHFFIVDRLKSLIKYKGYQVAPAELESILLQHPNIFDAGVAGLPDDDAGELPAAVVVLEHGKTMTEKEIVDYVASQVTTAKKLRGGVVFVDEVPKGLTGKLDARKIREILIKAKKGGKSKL

[5] = Luminescence Cell-Based Dose Confirmation HTS to Identify Inhibitors of Platelet Dense Granule Release. [Related pubchem assays: 1663 (Primary HTS), 1678 (Summary of Project)]; format: functional
[6] = test system: Streptococcus sp. 'group A'; test: Streptococcus pyogenes SK(-)GAS viability under kanamycin – luminescence, BacTiterGlo, confirmation, counter-screen for streptokinase expression inhibitor project, dose response (AID 1900); format: functional, organism-based
[7] = Luminescence Cell-Based Dose Response HTS to Identify Activators of Luciferase Translation or Activity in H4 […] Cells. [Related pubchem assays: 1829 (Project Summary), 1814 (Primary HTS)]; format: functional
[8] = Luminescence Cell-Based Dose Confirmation HTS to Identify Activators of 5'UTR Stem-Loop Driven Alpha-Synuclein mRNA Translation in H4 Neuroglioblastoma Cells. [Related pubchem assays: 1829 (Project Summary), 1814 (Primary HTS)]; format: functional
H4 = test: Luminescence Cell-Based Dose Response HTS to Identify Activators of 5'UTR Stem-Loop Driven Prion Protein mRNA Translation in H4 Neuroglioblastoma Cells. [Related pubchem assays: 1829 (Project Summary), 1814 (Primary HTS)]; format: functional; conditions: Homo sapiens

S=C(Nc1ccc2c[nH]nc2c1)Nc1ccccc1Cl
EC50 (cells [1]): > 350 µM (not active) | EC50 (cells [2]): > 350 µM (not active)

COc1ccc(C2CC(=O)c3sc(N)nc3C2)cc1 (stereo unspecified)
IC50 (Leucine aminopeptidase): 30.1 µM (active)

CC(OC(=O)Cn1c(C(F)(F)F)nc2ccccc21)C(N)=O (stereo unspecified)
AC50 (Cytochrome P450 2C9): 0.631 µM (inconclusive) | AC50 (Cytochrome P450 2C19): 28.2 µM (inconclusive) | AC50 (Cytochrome P450 1A2): 25.1 µM (inconclusive)

CN(CC(=O)Nc1ccc(Cl)c(C(F)(F)F)c1)C(=O)CCCNC(=O)c1ccc(Cl)cc1
CC50 [3]: 2.49 µM (active)

O=C(O)c1ccccc1Nc1ccc([N+](=O)[O-])cc1C(=O)O
EC50 (cells [1]): > 350 µM (not active) | EC50 (cells [2]): > 350 µM (not active)

CC(C)(C)c1nc2scc(-c3cccs3)c2c(=O)o1
IC50 (Fatty acid synthase): 3.42 µM (active)

CCOc1ccc(-c2nc3n(c(=O)c2C#N)CCCS3)cc1
EC50 (Streptococcus): 148 µM (active) | EC50 (Streptokinase A): > 150 µM (not active) | EC50 [4]: > 112 µM (not active) | EC50 [5]: > 112 µM (not active) | EC50 [6]: 11.9 µM (active)

S=C(c1ccc(-c2cc(Cl)ccc2Cl)o1)N1CCCCC1
CC50 [3]: > 50 µM (active)

COC(=O)c1ccc(C2C(C(=O)c3ccc4c(c3)CC(C)O4)=C(O)C(=O)N2Cc2ccncc2)cc1 (stereo unspecified)
EC50 [4]: > 112 µM (not active) | EC50 [5]: > 112 µM (not active)

Cc1ccc(NC(=O)c2nnn(-c3ccc4c(c3)OCCO4)c2N)cc1
CC50 [3]: > 50 µM (active)

CCCNC(=O)c1cc2nc(-c3ccccc3)cc(C(F)(F)F)n2n1
EC50 (cells [1]): > 350 µM (not active) | EC50 (cells [2]): > 350 µM (not active)

Cc1ccc(NC(=O)CNc2cc(S(=O)(=O)N3CCOCC3)ccc2NCC2CCCO2)cc1F (stereo unspecified)
EC50 [4]: > 112 µM (not active) | EC50 [5]: > 112 µM (not active)

CC(C)CN(CCNC(=O)c1cn(C)c2ccc(S(=O)(=O)N3CCCC3)cc2c1=O)CC(C)C
EC50 (cells [1]): > 350 µM (not active) | EC50 (cells [2]): > 350 µM (not active)

CCC(c1nnnn1Cc1ccccc1)N(Cc1ccco1)Cc1cc2cc(OC)ccc2nc1O (stereo unspecified)
EC50 [4]: > 112 µM (not active) | EC50 [5]: > 112 µM (not active)

COc1ccc(CCn2ccc(O)c(Cc3ccc(Cl)cc3)c2=O)cc1OC
CC50 [3]: 20 µM (active)

COc1ccc(-c2csc(NC(=O)c3cc(C)oc3C)n2)cc1OC
CC50 [3]: 26.6 µM (active)

NC(=O)c1nsc(C(=O)N(CC(=O)NC2CCCC2)c2cnc3ccccc3c2)c1N
EC50 [4]: > 112 µM (not active) | EC50 [5]: 17.1 µM (active)

Cc1ccc(NC(=O)NC2=NN(c3ccccc3)C(=O)/C2=C2/CCCN2C)cc1
EC50 [7]: 18.1 µM (active) | EC50 [8]: 32.5 µM (active) | EC50 (H4): 14.4 µM (active)

Cc1ccccc1-c1cc(C(=O)n2cccn2)c2cc(Cl)ccc2n1
AC50 (Cytochrome P450 2C19): 7.08 µM (inconclusive) | AC50 (Cytochrome P450 1A2): 17.8 µM (inconclusive)
